Laboratory results as given in ChEMBL document CHEMBL1201862, “PubChem BioAssay data set” (2004).
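Following 48 hours of exposure in 96-well plates, responses at five concentrations were used to interpolate endpoints linearly. The concentration for 50% growth inhibition is given as GI50.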 Activity calls are given as the source filed them. Cut-off read from the data, not from the text of the source: active = GI50 up to about 1.1 µM and inactive = higher.

Legend:
Assay in all cases: NCI tumour cell line growth inhibition, 48 h
[1] = test system: NCI-H226
[2] = test system: Hs-578T
[3] = test system: NCI-H522
[4] = test system: BT-549
[5] = test system: MDA-N
[6] = test system: HOP-62
[7] = test system: SF-539
[8] = test system: PC-3
[9] = test system: KM12
[10] = test system: NCI-H460
[11] = test system: OVCAR-4
[12] = test system: A549
[13] = test system: ACHN
[14] = test system: MOLT-4
[15] = test system: NCI-H23
[16] = test system: UO-31
[17] = test system: 786-0
[18] = test system: RPMI-8226
[19] = test system: NCI/ADR-RES
[20] = test system: HL-60

Compound	GI50 [1]	GI50 [2]	GI50 [3]	GI50 [4]	GI50 [5]	GI50 [6]	GI50 [7]	GI50 [8]	GI50 [9]	GI50 [10]	GI50 [11]	GI50 [12]	GI50 [13]	GI50 [14]	GI50 [15]	GI50 [16]	GI50 [17]	GI50 [18]	GI50 [19]	GI50 [20]
CSc1ncnc2c1cnn2Cc1cn(CCCCO)nn1	> 100 µM (inactive)	71.1 µM (inactive)	> 100 µM (inactive)	> 100 µM (inactive)	> 100 µM (inactive)	> 100 µM (inactive)	> 100 µM (inactive)	> 100 µM (inactive)	> 100 µM (inactive)	> 100 µM (inactive)	> 100 µM (inactive)	> 100 µM (inactive)	> 100 µM (inactive)	> 100 µM (inactive)	> 100 µM (inactive)	> 100 µM (inactive)	> 100 µM (inactive)	> 100 µM (inactive)	–	–
CC1(c2ccc(F)cc2)CC(c2ccc(F)cc2)=C(C#N)C(=C(C#N)C#N)N1 (stereo not given)	21.2 µM (inactive)	23.3 µM (inactive)	–	24.9 µM (inactive)	17.4 µM (inactive)	19.7 µM (inactive)	25.7 µM (inactive)	16.3 µM (inactive)	15 µM (inactive)	18 µM (inactive)	13.4 µM (inactive)	19.1 µM (inactive)	16.6 µM (inactive)	14.4 µM (inactive)	17.3 µM (inactive)	17.1 µM (inactive)	15.3 µM (inactive)	5.55 µM (inactive)	20.5 µM (inactive)	6.31 µM (inactive)
COc1ccc(CNc2nc(NCc3ccc(OC)c(OC)c3)nc(NC3CCCCC3)n2)cc1	6.55 µM (inactive)	2.49 µM (inactive)	1.69 µM (inactive)	4.57 µM (inactive)	–	–	2.29 µM (inactive)	3.77 µM (inactive)	1.21 µM (inactive)	2.8 µM (inactive)	9.06 µM (inactive)	5.46 µM (inactive)	7.94 µM (inactive)	5.22 µM (inactive)	2.86 µM (inactive)	5.18 µM (inactive)	5.64 µM (inactive)	3.6 µM (inactive)	2.55 µM (inactive)	2.77 µM (inactive)
O=C(O)c1cc(CC2Cc3cc4c(cc3C2=O)CCC4)cc2c1CCC2 (stereo not given)	> 100 µM (inactive)	48.1 µM (inactive)	90.2 µM (inactive)	> 100 µM (inactive)	–	> 100 µM (inactive)	> 100 µM (inactive)	46.6 µM (inactive)	75.2 µM (inactive)	> 100 µM (inactive)	> 100 µM (inactive)	> 100 µM (inactive)	61 µM (inactive)	> 100 µM (inactive)	> 100 µM (inactive)	> 100 µM (inactive)	> 100 µM (inactive)	70.8 µM (inactive)	> 100 µM (inactive)	> 100 µM (inactive)
S=C1NC2=C(COc3ccccc32)C(c2ccc(Cl)cc2)N1 (stereo not given)	17.6 µM (inactive)	21.6 µM (inactive)	–	21.1 µM (inactive)	16.4 µM (inactive)	17.1 µM (inactive)	16.6 µM (inactive)	13.4 µM (inactive)	16.2 µM (inactive)	–	–	20.2 µM (inactive)	22.9 µM (inactive)	12.8 µM (inactive)	21.7 µM (inactive)	18.4 µM (inactive)	19.2 µM (inactive)	5.78 µM (inactive)	18.9 µM (inactive)	13.9 µM (inactive)
COc1cc(C(C)=O)cc(C(=O)N(C(C)C)C(C)C)c1[Si](C)(C)C	> 100 µM (inactive)	> 100 µM (inactive)	34.8 µM (inactive)	> 100 µM (inactive)	> 100 µM (inactive)	> 100 µM (inactive)	> 100 µM (inactive)	> 100 µM (inactive)	> 100 µM (inactive)	> 100 µM (inactive)	> 100 µM (inactive)	67.8 µM (inactive)	> 100 µM (inactive)	79.6 µM (inactive)	52.8 µM (inactive)	> 100 µM (inactive)	> 100 µM (inactive)	–	–	24.3 µM (inactive)
N#CC1C(=O)SC2c3ccccc3C(=O)c3ccccc3C12 (stereo not given)	> 10 µM (inactive)	> 10 µM (inactive)	–	> 10 µM (inactive)	> 10 µM (inactive)	> 10 µM (inactive)	> 10 µM (inactive)	> 10 µM (inactive)	> 10 µM (inactive)	> 10 µM (inactive)	> 10 µM (inactive)	> 10 µM (inactive)	> 10 µM (inactive)	> 10 µM (inactive)	> 10 µM (inactive)	> 10 µM (inactive)	> 10 µM (inactive)	> 10 µM (inactive)	> 10 µM (inactive)	> 10 µM (inactive)
CC1CC(C)CC(C)C(O)/C(C#N)=C/C=C/CC(C2CCCC2C(=O)O)OC(=O)CC(O)C(C)C1 (stereo not given)	0.0158 µM (active)	< 0.01 µM (active)	< 0.01 µM (active)	0.0143 µM (active)	< 0.0112 µM (active)	0.0148 µM (active)	< 0.01 µM (active)	0.0251 µM (active)	–	0.0284 µM (active)	0.0424 µM (active)	0.053 µM (active)	< 0.0194 µM (active)	0.022 µM (active)	–	0.012 µM (active)	< 0.0126 µM (active)	< 0.0305 µM (active)	–	0.0137 µM (active)
COc1cc(C2c3cc4c(cc3C(=O)C3CCC(=O)N32)OCO4)cc(OC)c1O (stereo not given)	> 50 µM (inactive)	–	–	> 50 µM (inactive)	> 50 µM (inactive)	> 50 µM (inactive)	> 50 µM (inactive)	> 50 µM (inactive)	> 50 µM (inactive)	> 50 µM (inactive)	> 50 µM (inactive)	> 50 µM (inactive)	> 50 µM (inactive)	> 50 µM (inactive)	> 50 µM (inactive)	> 50 µM (inactive)	> 50 µM (inactive)	> 50 µM (inactive)	> 50 µM (inactive)	> 50 µM (inactive)
CN(CCc1ccccn1)c1ccc2c(c1)C(=O)c1ccccc1-2	40.6 µM (inactive)	73.3 µM (inactive)	71.1 µM (inactive)	78.9 µM (inactive)	64.9 µM (inactive)	> 100 µM (inactive)	–	> 100 µM (inactive)	> 100 µM (inactive)	9.68 µM (inactive)	69.5 µM (inactive)	14.4 µM (inactive)	> 100 µM (inactive)	–	> 100 µM (inactive)	> 100 µM (inactive)	41.3 µM (inactive)	38.3 µM (inactive)	> 100 µM (inactive)	–
O=C(O)/C=C/c1ccc(Oc2ccccc2C(=O)O)o1	–	> 10 µM (inactive)	> 10 µM (inactive)	> 10 µM (inactive)	> 10 µM (inactive)	> 10 µM (inactive)	> 10 µM (inactive)	> 10 µM (inactive)	> 10 µM (inactive)	–	> 10 µM (inactive)	> 10 µM (inactive)	> 10 µM (inactive)	> 10 µM (inactive)	> 10 µM (inactive)	–	> 10 µM (inactive)	> 10 µM (inactive)	> 10 µM (inactive)	> 10 µM (inactive)
O=C1CSc2nnc(CCCCCCCCc3nnc4n3NC(=O)CS4)n2N1	> 100 µM (inactive)	–	26.7 µM (inactive)	56.8 µM (inactive)	> 100 µM (inactive)	46 µM (inactive)	48.9 µM (inactive)	> 100 µM (inactive)	> 100 µM (inactive)	> 100 µM (inactive)	> 100 µM (inactive)	> 100 µM (inactive)	> 100 µM (inactive)	31.3 µM (inactive)	> 100 µM (inactive)	> 100 µM (inactive)	32.6 µM (inactive)	28.6 µM (inactive)	> 100 µM (inactive)	31.5 µM (inactive)
CC(=O)OCC1OC(n2c(C)c(/N=N/c3ccc(Cl)cc3)c(C)c(C#N)c2=S)C(OC(C)=O)C(OC(C)=O)C1OC(C)=O (stereo not given)	–	21.5 µM (inactive)	–	15.3 µM (inactive)	> 100 µM (inactive)	22.8 µM (inactive)	44.1 µM (inactive)	> 100 µM (inactive)	> 100 µM (inactive)	> 100 µM (inactive)	> 100 µM (inactive)	64.4 µM (inactive)	58.1 µM (inactive)	> 100 µM (inactive)	> 100 µM (inactive)	> 100 µM (inactive)	19.9 µM (inactive)	> 100 µM (inactive)	> 100 µM (inactive)	> 100 µM (inactive)
Clc1ccc2c(NCCCC/N=C/c3ccccc3)ccnc2c1	4.33 µM (inactive)	11.6 µM (inactive)	11.8 µM (inactive)	13.4 µM (inactive)	11.7 µM (inactive)	10 µM (inactive)	11.9 µM (inactive)	10.4 µM (inactive)	7.98 µM (inactive)	11 µM (inactive)	10.5 µM (inactive)	13.4 µM (inactive)	12.5 µM (inactive)	2.82 µM (inactive)	11 µM (inactive)	14.8 µM (inactive)	9.16 µM (inactive)	18.1 µM (inactive)	20.7 µM (inactive)	–
O=C(O)C[n+]1cn(NC(=O)Cc2ccccc2)cn1	–	0.158 µM (active)	> 10 µM (inactive)	> 10 µM (inactive)	> 10 µM (inactive)	> 10 µM (inactive)	> 10 µM (inactive)	–	> 10 µM (inactive)	> 10 µM (inactive)	> 10 µM (inactive)	> 10 µM (inactive)	> 10 µM (inactive)	> 10 µM (inactive)	> 10 µM (inactive)	> 10 µM (inactive)	> 10 µM (inactive)	0.501 µM (active)	> 10 µM (inactive)	–
